Assay results taken from paper PMC7582727, “Functional Impact of BeKm-1, a High-Affinity hERG Blocker, on Cardiomyocytes Derived from Human-Induced Pluripotent Stem Cells” (International Journal of Molecular Sciences, 2020).
“Also recorded” adds a separate entry of the source. Positions of bridges follow the written chain, without caps; N, C: chain ends. Residues, ends and D or L forms follow the SMILES beside them.

Tests used:
human hERG channel = human hERG channel (Homo sapiens, UniProt Q12809); assay: in vitro; details: human
Sequence of human hERG channel (Q12809 whole entry): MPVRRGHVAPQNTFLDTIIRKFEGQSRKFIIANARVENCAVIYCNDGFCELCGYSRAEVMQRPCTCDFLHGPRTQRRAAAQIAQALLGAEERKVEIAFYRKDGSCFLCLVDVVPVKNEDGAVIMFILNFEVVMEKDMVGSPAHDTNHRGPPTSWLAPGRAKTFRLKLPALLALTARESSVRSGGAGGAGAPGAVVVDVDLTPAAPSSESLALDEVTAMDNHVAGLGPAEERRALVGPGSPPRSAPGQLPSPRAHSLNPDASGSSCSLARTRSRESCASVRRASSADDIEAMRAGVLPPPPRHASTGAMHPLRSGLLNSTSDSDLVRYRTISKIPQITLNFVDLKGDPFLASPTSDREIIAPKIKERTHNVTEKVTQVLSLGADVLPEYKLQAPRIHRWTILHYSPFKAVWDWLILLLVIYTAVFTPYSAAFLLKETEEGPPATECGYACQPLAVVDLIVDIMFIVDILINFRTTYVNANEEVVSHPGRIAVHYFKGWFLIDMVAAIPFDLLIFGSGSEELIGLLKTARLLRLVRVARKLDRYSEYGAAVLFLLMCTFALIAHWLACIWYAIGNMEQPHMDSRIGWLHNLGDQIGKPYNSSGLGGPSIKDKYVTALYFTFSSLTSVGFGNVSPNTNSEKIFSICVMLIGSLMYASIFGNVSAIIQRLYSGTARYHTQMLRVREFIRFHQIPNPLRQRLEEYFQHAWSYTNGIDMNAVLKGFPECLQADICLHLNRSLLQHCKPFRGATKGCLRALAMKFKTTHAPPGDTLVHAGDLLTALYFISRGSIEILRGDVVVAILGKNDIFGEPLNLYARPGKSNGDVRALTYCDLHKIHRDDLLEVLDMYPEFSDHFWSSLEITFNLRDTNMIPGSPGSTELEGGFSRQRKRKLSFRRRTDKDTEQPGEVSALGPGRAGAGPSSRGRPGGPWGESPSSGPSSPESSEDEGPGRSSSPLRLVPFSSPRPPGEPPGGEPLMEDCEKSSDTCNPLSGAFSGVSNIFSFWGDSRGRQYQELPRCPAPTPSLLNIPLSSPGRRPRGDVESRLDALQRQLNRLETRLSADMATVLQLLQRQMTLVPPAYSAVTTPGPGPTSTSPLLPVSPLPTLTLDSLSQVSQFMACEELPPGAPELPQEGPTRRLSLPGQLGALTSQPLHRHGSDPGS
Protocol: (§1) Voltage pulses and whole-cell recordings were achieved using the PatchControl384 v1.5.3 software (Nanion Technologies, Munich, Germany) and the Biomek v1.0 interface (Beckman Coulter, Villepinte, France). […] After cell catching, sealing, whole-cell formation, liquid application, recording, and data acquisition were all performed sequentially and automatically. […] A single concentration of peptide was tested on each cell for building the full-inhibition curves.

[1] = target: human hERG channel (Kv11.1) (Homo sapiens, UniProt Q12809); assay: in vitro
Sequence of human hERG channel (Kv11.1) (Q12809 whole entry): as above
Protocol: as §1

[2] = tested on: hiPS-CMs (clone C2a, ventricular-like); assay: Manual patch-clamp of spontaneous action potentials in hiPS-CMs; format: cell-based, human
Source text: For this study, we used a non-commercial hiPS cell clone (C2a) that has been fully characterized earlier in the laboratory. The properties of the cardiomyocytes derived from this clone may differ to some extent from those of commercial clones, but this should not affect the nature of the conclusions derived from our investigations. […] The effects on AP characteristics also included the depolarization of the maximum diastolic potential (MDP) from −52.2 ± 1.7 mV to −36.1 ± 2.3 mV (n = 7, Figure 2D) and the decrease of maximal upstroke velocity from 6.9 ± 0.9 mV/s (vehicle, n = 7) to 4.6 ± 0.9 mV/s (BeKm-1, n = 7), representing an average 1.5-fold reduction (Figure 2E). […] The action potential duration (APD) at 30% and 50% of repolarization were spared, which is consistent with the role of hERG in the late phase of repolarization in these cells (Figure 2G). In contrast, BeKm-1 was able to delay the repolarization of these cells, increasing the APD at 90% repolarization (APD90) from 95.0 ± 8.4 ms (vehicle, n = 7) to 117.4 ± 11.3 ms (BeKm-1, n = 7; 23% increase) (Figure 2G). While these values could theoretically be corrected for the BeKm-1-induced variability in cycle length (Figure 2C) using the Fridericia cube root formula, the corrected data would be meaningless because of the additional depolarization in MDP (Figure 2D).
hiPS-CMs: All experiments were performed on the human-induced pluripotent stem cell (hiPSC) clone C2a that has been previously characterized, including cardiac differentiation and electrophysiology data. Cells were expanded on stem cell-qualified matrigel-coated plates (0.05 mg/mL; BD Bioscience, Le Pont de Claix, France) and cultured in StemMACS iPS-BREW XF medium (Miltenyi Biotec, Paris, France). Cells were passaged every […] using Gentle Cell Dissociation Buffer (StemCell Technologies, Grenoble, France). Prior to differentiation, cells were cultured as a monolayer in StemMACS iPS-brew supplemented with 1 × Y-27632 Rho-associated, coiled-coil containing protein kinase (ROCK) inhibitor (StemCell Technologies, Grenoble, France). When hiPSCs reached proper confluence, they were differentiated into cardiomyocytes using previously described « Matrix sandwich » protocol. At day 20 ± 1 of differentiation, beating cardiomyocytes were manually dissected and isolated from non-beating cells. Briefly, cardiomyocytes were washed with phosphate-buffered saline (PBS) and treated with TrypLE Express (10x) (Thermo Fisher Scientific, Illkirch-Graffenstaden, France) for 5 min at 37 °C. The enzyme was inactivated by adding RPMI1640 medium containing 20% (vol/vol) KnockOut Serum Replacement (KSR) (Thermo Fisher Scientific, Illkirch-Graffenstaden, France). The supernatant was removed, and cells were suspended in RPMI1640 medium containing 20% (vol/vol) KSR and ROCK inhibitor. Then, the cells were plated on specific supports suitable for functional assessments.
Manual patch clamp: Single-cell dissociated hiPS-CMs were plated at low density on matrigel-coated 35 mm Petri dishes (Nunc from Thermo Fisher Scientific, Illkirch-Graffenstaden, France). Electrophysiological experiments were performed 12 to 14 days after dissociation. APs were recorded in the current-clamp mode, using the amphotericin-B-perforated patch-clamp technique. All experiments were conducted at 37 °C. APs were recorded either at basal state (spontaneous APs) or using the dynamic patch-clamp method to electronically mimic the expression of the inward rectifier potassium current, IK1 [23, 24]. The resting membrane potential (RMP) was set to −80 ± 5 mV by injecting 2 to 2.8 pA/pF in silico IK1 density. This level of current was set so that about 80% of the ventricular-like hiPS-CMs could reach these physiological RMP values. The remaining cells were discarded from the recording process. […]

hERG channel = details: cited from earlier work
Source text: The Kv11.1 channel (hERG) and the corresponding IKr current play a major role in cardiac repolarization (Figure S1). […] Long QT syndrome is one of the cardiac diseases that has been studied in the greatest detail. Type II long QT syndrome is associated with a decrease in IKr currents, as opposed to short QT syndrome, which is associated with increased IKr currents. Type II long QT syndrome is called “inherited” when a mutation in the gene encoding hERG, KCNH2, gives rise to a loss of ... || In this report, we focused on BeKm-1, a toxin that was originally isolated from the venom of Buthus eupeus scorpion. […] According to its 3D structure, the peptide adopts an α-helix and three β-strands organized in a twisted antiparallel β-sheet. By homology with other toxins, BeKm-1 is a member of the γ-KTx subfamily of scorpion toxins.

rabbit heart = tested on: rabbit heart; set-up: method as in PMID 21205913; details: ref [8]; cited from earlier work

## CC[C@H](C)[C@H](NC(=O)[C@H](CC(=O)O)NC(=O)[C@@H](NC(=O)[C@@H]1CCCN1C(=O)[C@@H](N)CCCNC(=N)N)[C@@H](C)O)C(=O)N[C@@H](CCCCN)C(=O)N[C@H]1CSSC[C@@H]2NC(=O)[C@H](CCCNC(=N)N)NC(=O)CNC(=O)[C@H](CC(N)=O)NC(=O)[C@H]([C@@H](C)O)NC(=O)[C@H](CCCCN)NC(=O)CNC(=O)[C@H](Cc3ccccc3)NC(=O)[C@H](CCCNC(=N)N)NC(=O)[C@H](CO)NC(=O)[C@H](CCCCN)NC(=O)[C@@H]3CSSC[C@@H](C(=O)N[C@@H](Cc4ccccc4)C(=O)O)NC(=O)[C@H](CC(=O)O)NC(=O)[C@H](CSSC[C@H](NC(=O)[C@H](CCC(N)=O)NC(=O)[C@H](Cc4ccc(O)cc4)NC(=O)[C@H](CO)NC(=O)[C@H](CCC(=O)O)NC(=O)[C@H](CO)NC1=O)C(=O)N[C@@H](Cc1ccccc1)C(=O)N1CCC[C@H]1C(=O)N[C@@H](C(C)C)C(=O)N3)NC(=O)[C@H](Cc1ccccc1)NC(=O)CNC(=O)[C@H](CC(N)=O)NC(=O)[C@H](C(C)C)NC2=O [BeKm-1] (H-RPTDIKCSESYQCFPVCKSRFGKTNGRCVNGFCDCF-OH; disulfide 7-28, 13-33, 17-35 (inferred); N-terminus and C-terminus assumed)
Human hERG channel
  IC50 at 13 min: 1.9 ± 0.3 nM
[1]; HEK293-hERG, Hill equation fit of dose-response curve
  Hill number, hERG current inhibition: 1.9
[1]; at maximally effective doses of the peptide (100 nM)
  maximal block of hERG currents (plateau): 90%
[2]; 5 nM BeKm-1, 37 °C, vehicle 2.50 ± 0.20 Hz, n = 7, mean ± SEM, significant
  AP frequency: 0.70 ± 0.26 Hz
[2]; 5 nM application, Figure S2
  kinetics of AP parameter changes: changed according to similar kinetics
[2]; 5 nM vs vehicle, average
  maximal upstroke velocity, fold reduction: 1.5 -fold
[2]; 5 nM vs vehicle, spontaneous APs
  APD90 increase: 23%
[2]; 5 nM, representative time course, Figure S2
  restitution of AP parameters after toxin washout: rather rapid restitution of these parameters after toxin washout
[2]; 5 nM, spontaneous APs
  APD at 30% and 50% of repolarization: spared
[2]; 5 nM, spontaneous APs, vehicle 95.0 ± 8.4 ms, n = 7, mean ± SEM, not corrected for cycle length
  APD at 90% repolarization (APD90): 117.4 ± 11.3 ms
[2]; 5 nM, Poincaré plot
  APD90 variability: increased
[2]; 5 nM, Poincaré plot of consecutive APs
  AP rhythm variability: increase of rhythm variability
[2]; 5 nM, vehicle 6.9 ± 0.9 mV/s, n = 7, mean ± SEM
  maximal upstroke velocity (dV/dtmax): 4.6 ± 0.9 mV/s
[2]; 5 nM, vehicle 29.9 ± 3.1 mV, n = 7, mean ± SEM, not significant
  AP overshoot: 22.2 ± 6.4 mV
[2]; 5 nM, vehicle −52.2 ± 1.7 mV, n = 7, mean ± SEM
  maximum diastolic potential (MDP): −36.1 ± 2.3 mV
[2]; 100 nM, representative trace of single hiPS-CM
  beating / AP arrest: AP arrest; also recorded: complete beating arrest by a major membrane depolarization
[2]; spontaneously beating ventricular-like cells
  early afterdepolarizations (EADs): never observed
[2]; wash after 5 nM, n = 5
  reversibility on wash: fully restored all parameters
hERG channel; in cardiomyocytes, no ref at the statement
  selectivity for hERG: highly selective for the hERG channel in cardiomyocytes
hERG channel; read-out: IC50, hERG (reported), ref [1],[2],[3],[4]
  IC50: 3.3 to 15.3 nM
hERG channel; ref [1]
  other targets: no other targets have been reported
hERG channel; ref [4]
  channel state blocked: blocks the closed state of the channel
hERG channel; ref [9]
  binding site (face of channel): preferentially binds the hERG outer mouth
Rabbit heart
  QT interval in ECG: prolongs the QT interval
